In US10874598B2, “Compositions and methods for treating damaged hair” (AVON PRODUCTS, INC., priority 2013, dated 2020):

Assay: Tensile load required to break hair fibers (break load)
Description: A commercial rinse-off conditioner formulation was used as a control vehicle for the study. An active formulation was prepared by adding 1% (w/w) of TDPA to the control vehicle. Three samples of treated hair were prepared: untreated, treatment with the control vehicle, and treatment with the control vehicle plus 1% TDPA. The treatments were applied to hair tresses that had been previously damaged by artificially color with an oxidative dye. The treatments were repeated five times. The overall condition of the hair fibers was determined by measuring the tensile load required to break the fibers and the results of 30 fibers were averaged. […] In stark contrast, the active formula, having 1% TDPA, gave a break load of about 82 gm. This correlates to an improvement in the tensile strength of about 20%. The formulas used in the testing protocol were as follows: […]

## O=C(O)CCSCCC(=O)O [TDPA, 3,3′-thiodipropionic acid]
Active formula with 1% TDPA (about 82 gm), untreated hair about 68 gm, control vehicle about 73 gm
  improvement in the tensile strength: about 20%
Active formula: commercial rinse-off conditioner control vehicle plus 1% (w/w) TDPA, treatments repeated five times, results of 30 fibers averaged, FIG. 1
  break load (tensile load required to break the fibers): about 82 gm
